Test results published in patent EP0745595A1, “3-(3-Aryloxyphenyl)-1-(substituted methyl)-s-triazine-2,4,6-oxo or thiotrione herbicidal agents” (American Cyanamid Company, priority 1995, dated 1996).

Assays:
Assay type in all cases: in vivo
[1] = system: ABUTILON THEOPHRASTI, MEDIC.; experiment: Postemergence herbicidal evaluation, ABUTH (Velvetleaf); conditions: rated four to five weeks after treatment, averaged
How it was run: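 This postemergence herbicide test used two-week-old velvetleaf seedlings grown in jiffy flats. Each compound was sprayed at 40 psi as a dispersion in 50/50 acetone/water with 0.5% TWEEN®20 surfactant. Plants then received routine greenhouse care. After four to five weeks, injury was scored visually on a 0-9 scale against a control, and replicate tests were averaged.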

[2] = system: AMBROSIA ARTEMISIIFOLIA, L.; experiment: Postemergence herbicidal evaluation, AMBEL (Ragweed, Common); conditions: rated four to five weeks after treatment, averaged
How it was run: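 Postemergence herbicidal activity on AMBEL (common ragweed) was assessed on two-week-old seedlings grown in jiffy flats. Treatment solutions of 50/50 acetone/water with 0.5% TWEEN®20 surfactant were sprayed at 40 psi. After four to five weeks in the greenhouse, plants were scored 0-9 against a control for stand, vigor, malformation, size, chlorosis and overall appearance, with multiple tests averaged.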

[3] = system: CASSIA OBTUSIFOLIA, L.; experiment: Postemergence herbicidal evaluation, CASOB (Sicklepod); conditions: rated four to five weeks after treatment, averaged
Experimental: In the tests, seedling plants are grown in jiffy flats for about two weeks. The test compounds are dispersed in 50/50 acetone/water mixtures containing 0.5% TWEEN®20, a polyoxyethylene sorbitan monolaurate surfactant of Atlas Chemical Industries, in sufficient quantities to provide the equivalent of about 0.125 kg to 0.500 kg per hectare of active compound when applied to the plants through a spray nozzle operating at 40 psi for a predetermined time. After spraying, the plants are placed on greenhouse benches and are cared for in the usual manner, commensurate with conventional greenhouse practices. From four to five weeks after treatment, the seedling plants are examined and rated according to the rating system set forth below. Where more than one test is involved for a given compound, the data are averaged.
Plant species employed in these evaluations are reported by header abbreviation, common name and scientific name.
(§1) Results of herbicide evaluation are expressed on a rating scale (0-9). The scale is based upon a visual observation of plant stand, vigor, malformation, size, chlorosis and overall plant appearance as compared with a control.

[4] = system: CHENOPODIUM ALBUM, L.; experiment: Postemergence herbicidal evaluation, CHEAL (Lambsquarters, Common); conditions: rated four to five weeks after treatment, averaged
How it was run: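 Postemergence herbicidal activity on Chenopodium album was tested by spraying two-week-old seedlings grown in jiffy flats with compound in acetone/water (50/50) plus 0.5% TWEEN®20, using a 40 psi nozzle. Four to five weeks after treatment, stand, vigor, malformation, size, chlorosis and overall appearance were scored 0-9 relative to controls, with repeat tests averaged.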

[5] = system: IPOMOEA SPP.; experiment: Postemergence herbicidal evaluation, IPOSS (Morningglory spp.); conditions: rated four to five weeks after treatment, averaged
How it was run: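 In this greenhouse postemergence herbicide test on Ipomoea spp. (morningglory), compounds in 50/50 acetone/water with 0.5% TWEEN®20 were sprayed at 40 psi onto seedlings about two weeks old grown in jiffy flats. After four to five weeks, injury was scored on a 0-9 scale covering stand, vigor, malformation, size, chlorosis and overall appearance versus control, with repeat tests averaged.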

[6] = system: CHENOPODIUM ALBUM, L.; experiment: Preemergence herbicidal evaluation, CHEAL (Lambsquarters, Common); conditions: for CHEAL rating: four to five weeks after treatment; for CHEAL herbicidal rating: rated four to five weeks after treatment
How it was run: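 Preemergence, greenhouse: seed + potting soil sown on ~1 inch soil in cups; aqueous acetone spray, ~0.125–0.50 kg/ha equivalent; rated 0-9 vs control at 4–5 wk.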

[7] = system: ECHINOCHLOA ORYZOIDES (ARD.)FRITSCH; experiment: Preemergence weed control under flooded paddy conditions, ECHORC (Watergrass (Calif.)); conditions: for ECHORC herbicidal rating: preemergence weeds, rated three to four weeks after treatment; for Herbicidal effect rating, ECHORC: preemergence, 3-4 weeks after treatment
Experimental: as §1
(§2) Preemergence herbicidal activity under flooded paddy conditions is determined as follows: plant seeds or propagating organs are planted in the top 0.5 cm of silt loam soil in 32 oz. plastic containers with a diameter of 10.5 cm and no drainage holes. Water is added to these containers and maintained at 1.5 to 3 cm above the soil surface for the duration of the experiment. […] The treated containers are placed on greenhouse benches and cared for according to normal greenhouse procedures.- Three to four weeks after treatment the test is terminated and each container is examined and herbicidal effect rated according to the rating system provided in Example 40. The compounds evaluated are reported by compound number given in Example 40.
(§3) Plant species employed in this example are reported by header abbreviation, common name and scientific name.

[8] = system: CYPERUS IRIA; experiment: Preemergence weed control under flooded paddy conditions, CYPIR (Rice Flatsedge); conditions: for CYPIR herbicidal rating: preemergence weeds, rated three to four weeks after treatment; for Herbicidal effect rating, CYPIR: preemergence, 3-4 weeks after treatment
Experimental: as §1, §2, §3

[9] = system: […], PRESL.; experiment: Preemergence weed control under flooded paddy conditions, MOOVA (Monochoria); conditions: for MOOVA herbicidal rating: preemergence weeds, rated three to four weeks after treatment; for Herbicidal effect rating, MOOVA: preemergence, 3-4 weeks after treatment
Experimental: as §1
Preemergence herbicidal activity under flooded paddy conditions is determined as follows: plant seeds or propagating organs are planted in the top 0.5 cm of silt loam soil in 32 oz. plastic containers with a diameter of 10.5 cm and no drainage holes. Water is added to these containers and maintained at 1.5 to 3 cm above the soil surface for the duration of the experiment. The test compounds are applied as aqueous/acetone mixtures 50/50 v/v pipetted directly into the flood water to give the equivalent of about 0.5, 0.25, 0.125 and 0.063 kg/ha of active ingredient. The treated containers are placed on greenhouse benches and cared for according to normal greenhouse procedures.- Three to four weeks after treatment the test is terminated and each container is examined and herbicidal effect rated according to the rating system provided in Example 40. The compounds evaluated are reported by compound number given in Example 40.
as §3

[10] = system: ORYZA SATIVA, L. TEBONNET; experiment: Rice tolerance to post-transplant applications under flooded paddy conditions, ORYSAT (Rice, Tebonnet); conditions: post-transplant rice; for ORYSAT herbicidal rating (rice tolerance): rated three to four weeks after treatment; for Herbicidal effect rating, ORYSAT: 3-4 weeks after treatment;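 as to ORYSAT herbicidal rating (rice tolerance): applied to flooded soil surface three days after transplanting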
How it was run: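 Greenhouse pots of silt loam, each with two transplanted ten-day-old seedlings, are held under 1.5 to 3 cm of standing water. Three days later the compound is applied to the flooded surface at about 0.5, 0.25, 0.125 or 0.063 kg/ha. Damage is scored visually 0-9 after 3-4 weeks.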

[11] = system: CYPERUS SEROTINUS, ROTTB.; experiment: Preemergence weed control under flooded paddy conditions, CYPSE (Flatsedge); conditions: preemergence, 3-4 weeks after treatment
Experimental: as §1, §2, §3

[12] = system: SAGITTARIA PYGMAEA, L.; experiment: Preemergence weed control under flooded paddy conditions, SAGPY (Arrowhead (Pygmaea)); conditions: preemergence, 3-4 weeks after treatment
Experimental: as §1, §2, §3

Structure (SMILES): CCOC(=O)Cn1c(=O)n(C)c(=O)n(-c2cc(Oc3ccc(C(F)(F)F)cc3Cl)ccc2[N+](=O)[O-])c1=O [Compound 9, Ethyl 3-{5-[(2-chloro-α,α,α-trifluoro-p-tolyl)oxy]-2-nitrophenyl}tetrahydro-5-methyl-2,4,6-trioxo-s-triazine-1(2H)-acetate]
- ABUTH, herbicide rating (0-9) ([1]; Rate 0.125 kg/ha): 9.0
- ABUTH, herbicide rating (0-9) ([1]; Rate 0.250 kg/ha): 9.0
- ABUTH, herbicide rating (0-9) ([1]; Rate 0.500 kg/ha): 9.0
- AMBEL, herbicide rating (0-9) ([2]; Rate 0.125 kg/ha): 9.0
- AMBEL, herbicide rating (0-9) ([2]; Rate 0.250 kg/ha): 9.0
- AMBEL, herbicide rating (0-9) ([2]; Rate 0.500 kg/ha): 9.0
- CASOB, herbicide rating (0-9) ([3]; Rate 0.125 kg/ha): 9.0
- CASOB, herbicide rating (0-9) ([3]; Rate 0.250 kg/ha): 9.0
- CASOB, herbicide rating (0-9) ([3]; Rate 0.500 kg/ha): 9.0
- CHEAL, herbicide rating (0-9) ([4]; Rate 0.125 kg/ha): 9.0
- CHEAL, herbicide rating (0-9) ([4]; Rate 0.250 kg/ha): 9.0
- CHEAL, herbicide rating (0-9) ([4]; Rate 0.500 kg/ha): 9.0
- IPOSS, herbicide rating (0-9) ([5]; Rate 0.125 kg/ha): 9.0
- IPOSS, herbicide rating (0-9) ([5]; Rate 0.250 kg/ha): 9.0
- IPOSS, herbicide rating (0-9) ([5]; Rate 0.500 kg/ha): 9.0
- CHEAL rating ([6]; Rate 0.125 kg/ha): 9.0
- CHEAL rating ([6]; Rate 0.250 kg/ha): 9.0
- CHEAL rating ([6]; Rate 0.500 kg/ha): 9.0
- ECHORC herbicidal rating ([7]; Rate 0.063 kg/ha): 9.0
- ECHORC herbicidal rating ([7]; Rate 0.125 kg/ha): 9.0
- ECHORC herbicidal rating ([7]; Rate 0.250 kg/ha): 9.0
- ECHORC herbicidal rating ([7]; Rate 0.500 kg/ha): 9.0
- CYPIR herbicidal rating ([8]; Rate 0.063 kg/ha): 9.0
- CYPIR herbicidal rating ([8]; Rate 0.125 kg/ha): 9.0
- CYPIR herbicidal rating ([8]; Rate 0.250 kg/ha): 9.0
- CYPIR herbicidal rating ([8]; Rate 0.500 kg/ha): 9.0
- MOOVA herbicidal rating ([9]; Rate 0.063 kg/ha): 9.0
- MOOVA herbicidal rating ([9]; Rate 0.125 kg/ha): 9.0
- MOOVA herbicidal rating ([9]; Rate 0.250 kg/ha): 9.0
- MOOVA herbicidal rating ([9]; Rate 0.500 kg/ha): 9.0
- ORYSAT herbicidal rating (rice tolerance) ([10]; Rate 0.063 kg/ha): 3.3
- ORYSAT herbicidal rating (rice tolerance) ([10]; Rate 0.125 kg/ha): 3.7
- ORYSAT herbicidal rating (rice tolerance) ([10]; Rate 0.250 kg/ha): 5.7
- ORYSAT herbicidal rating (rice tolerance) ([10]; Rate 0.500 kg/ha): 6.0

Structure (SMILES): C=CCn1c(=O)n(CC(=O)OCC)c(=O)n(-c2cc(Oc3ccc(C(F)(F)F)cc3Cl)ccc2[N+](=O)[O-])c1=O [Compound 13, Ethyl 3-allyl-5-{5-[(2-chloro-α,α,α-tri-fluoro-p-tolyl)oxy]-2-nitrophenyl}tetra-hydro-2,4,6-trioxo-s-triazine-1(2H)-acetate]
- Herbicidal effect rating, ECHORC ([7]; 0.063 kg/ha): 9.0
- Herbicidal effect rating, ECHORC ([7]; 0.125 kg/ha): 9.0
- Herbicidal effect rating, ECHORC ([7]; 0.250 kg/ha): 9.0
- Herbicidal effect rating, ECHORC ([7]; 0.500 kg/ha): 9.0
- Herbicidal effect rating, CYPIR ([8]; 0.063 kg/ha): 9.0
- Herbicidal effect rating, CYPIR ([8]; 0.125 kg/ha): 9.0
- Herbicidal effect rating, CYPIR ([8]; 0.250 kg/ha): 9.0
- Herbicidal effect rating, CYPIR ([8]; 0.500 kg/ha): 9.0
- Herbicidal effect rating, CYPSE ([11]; 0.063 kg/ha): 0.0
- Herbicidal effect rating, CYPSE ([11]; 0.125 kg/ha): 0.0
- Herbicidal effect rating, CYPSE ([11]; 0.250 kg/ha): 0.0
- Herbicidal effect rating, CYPSE ([11]; 0.500 kg/ha): 0.0
- Herbicidal effect rating, MOOVA ([9]; 0.063 kg/ha): 9.0
- Herbicidal effect rating, MOOVA ([9]; 0.125 kg/ha): 9.0
- Herbicidal effect rating, MOOVA ([9]; 0.250 kg/ha): 9.0
- Herbicidal effect rating, MOOVA ([9]; 0.500 kg/ha): 9.0
- Herbicidal effect rating, SAGPY ([12]; 0.063 kg/ha): 0.0
- Herbicidal effect rating, SAGPY ([12]; 0.125 kg/ha): 0.0
- Herbicidal effect rating, SAGPY ([12]; 0.250 kg/ha): 0.0
- Herbicidal effect rating, SAGPY ([12]; 0.500 kg/ha): 0.0
- Herbicidal effect rating, ORYSAT ([10]; 0.063 kg/ha): 2.0
- Herbicidal effect rating, ORYSAT ([10]; 0.125 kg/ha): 2.0
- Herbicidal effect rating, ORYSAT ([10]; 0.250 kg/ha): 3.0
- Herbicidal effect rating, ORYSAT ([10]; 0.500 kg/ha): 3.0

Structure (SMILES): COC(=O)Cn1c(=O)n(C)c(=O)n(-c2cc(Oc3c(Cl)cc(Cl)cc3Cl)ccc2[N+](=O)[O-])c1=O [Compound 33, Methyl tetrahydro-3-methyl-5-[2-nitro-5-(2,4,6-trichlorophenoxy)phenyl]-2,4,6-trioxo-s-triazine-1(2H)-acetate]
- CHEAL herbicidal rating ([6]; Rate 0.125 kg/ha): 9.0
- CHEAL herbicidal rating ([6]; Rate 0.250 kg/ha): 9.0
- CHEAL herbicidal rating ([6]; Rate 0.500 kg/ha): 9.0
- Herbicidal effect rating, CYPIR ([8]; 0.063 kg/ha): 9.0
- Herbicidal effect rating, CYPIR ([8]; 0.125 kg/ha): 9.0
- Herbicidal effect rating, CYPIR ([8]; 0.250 kg/ha): 9.0
- Herbicidal effect rating, CYPIR ([8]; 0.500 kg/ha): 9.0
- Herbicidal effect rating, CYPSE ([11]; 0.063 kg/ha): 0.0
- Herbicidal effect rating, CYPSE ([11]; 0.125 kg/ha): 0.0
- Herbicidal effect rating, CYPSE ([11]; 0.250 kg/ha): 0.0
- Herbicidal effect rating, CYPSE ([11]; 0.500 kg/ha): 0.0
- Herbicidal effect rating, MOOVA ([9]; 0.063 kg/ha): 9.0
- Herbicidal effect rating, MOOVA ([9]; 0.125 kg/ha): 9.0
- Herbicidal effect rating, MOOVA ([9]; 0.250 kg/ha): 9.0
- Herbicidal effect rating, MOOVA ([9]; 0.500 kg/ha): 9.0
- Herbicidal effect rating, SAGPY ([12]; 0.063 kg/ha): 0.0
- Herbicidal effect rating, SAGPY ([12]; 0.125 kg/ha): 0.0
- Herbicidal effect rating, SAGPY ([12]; 0.250 kg/ha): 0.0
- Herbicidal effect rating, SAGPY ([12]; 0.500 kg/ha): 0.0
- Herbicidal effect rating, ORYSAT ([10]; 0.063 kg/ha): 3.0
- Herbicidal effect rating, ORYSAT ([10]; 0.125 kg/ha): 3.0
- Herbicidal effect rating, ORYSAT ([10]; 0.250 kg/ha): 3.0
- Herbicidal effect rating, ORYSAT ([10]; 0.500 kg/ha): 4.0
